# ± gives the standard deviation of the averaged measurements.
# Tested on: HL-60
# Experiment: cell viability (% survival relative to DMSO control); higher = less cytotoxic
# Conditions: 1 µM; 72 h; co-treatment: AZD3965 100 nM
# Method in brief: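 A rescreen of the full library used HL-60 cells in RPMI 1640 with 10% FBS on 384-well plates, run in duplicate at five tenfold concentrations (1–10,000 nM). Each screen included DMSO or 100 nM of one of three metabolic inhibitors and ran 72 h at 37 °C, 5% CO2. CellTiter-Glo viability was scaled between DMSO and 10 μM proteasome-inhibitor wells. Any area under the curve comes from four-parameter log-logistic fits with drc and PharmacoGx.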
row,SMILES,cell viability
1,COc1ccc2c(C(=S)N(C)CC(=O)O)cccc2c1C(F)(F)F [Tolrestat],97.9 ± 4.6%
2,CCC(=O)N1CCN(c2ccc(-n3c(=O)ccc4cnc5ccc(-c6cnc7ccccc7c6)cc5c43)cc2C(F)(F)F)CC1 [Torin1],99 ± 2.9%
3,NC(=O)c1cccc(-c2cccc(OC(=O)NC3CCCCC3)c2)c1 [URB-597],103 ± 8.5%
4,O=C1O[C@H]([C@@H](O)CO)C(O)=C1O [Vitamin C (ascorbate)],103 ± 4.3%

# Same assay, conditions: 1 µM; 72 h; co-treatment: DMSO vehicle
row,SMILES,cell viability
1,O=C(C1CC1)N1CC[C@@H](C=C2NNC(=O)N2c2ccc(-c3ccc4occc4c3)cc2)C1,92 ± 7.1%
2,C[C@H](NC(=O)c1sccc1OCc1ccc(Cl)cc1)c1ccccc1,104 ± 5.2%
3,O=C(O)C1=CC(=C(c2ccc(O)c(C(=O)O)c2)c2ccc(O)c(C(=O)O)c2)C=CC1=O [Aurintricarboxylic acid],104 ± 6.9%
4,COC(=O)[C@]12CCC(C)(C)C[C@H]1[C@H]1C(=O)C=C3[C@@]4(C)C=C(C#N)C(=O)C(C)(C)[C@@H]4CC[C@@]3(C)[C@]1(C)CC2 [Bardoxolone methyl],97.8 ± 1.5%
5,Cc1c(-c2ccc(-c3ccccc3F)cc2)nc2ccc(F)cc2c1C(=O)O [Brequinar],87.8 ± 4.5%
6,Nc1nc(Cl)nc2c1ncn2[C@H]1C[C@H](O)[C@@H](CO)O1 [Cladribine],3.39 ± 2.3%
7,O=C1c2cc([N+](=O)[O-])ccc2-n2c1nc1ccccc1c2=O [GNF-Pf-3777],91.6 ± 6%
8,C=C(C)[C@H]1Cc2c(ccc3c2O[C@@H]2COc4cc(OC)c(OC)cc4[C@@H]2C3=O)O1 [Rotenone],30.8 ± 1.9%
9,Oc1ccc(Nc2nc(-c3ccc(Cl)cc3)cs2)cc1 [SKI II],100 ± 6%
10,Cc1cn([C@H]2C[C@H](O)[C@@H](COP(=O)(O)OP(=O)(O)O)O2)c(=O)[nH]c1=O [Thymidine diphosphate],101 ± 2.7%
11,CN(C)c1cc(NC(=O)CNC(C)(C)C)c(O)c2c1C[C@H]1C[C@H]3[C@H](N(C)C)C(=O)C(C(N)=O)C(=O)[C@@]3(O)C(=O)C1C2=O (some centres not stated) [Tigecycline],101.5 ± 0.45%
12,COc1ccc2c(C(=S)N(C)CC(=O)O)cccc2c1C(F)(F)F [Tolrestat],99.23 ± 0.18%
13,CCC(=O)N1CCN(c2ccc(-n3c(=O)ccc4cnc5ccc(-c6cnc7ccccc7c6)cc5c43)cc2C(F)(F)F)CC1 [Torin1],101 ± 3.5%
14,NC(=O)c1cccc(-c2cccc(OC(=O)NC3CCCCC3)c2)c1 [URB-597],100 ± 1.9%
15,O=C1O[C@H]([C@@H](O)CO)C(O)=C1O [Vitamin C (ascorbate)],103 ± 2.7%

# Same assay, conditions: 1 µM; 72 h; co-treatment: GSK2194069 100 nM
row,SMILES,cell viability
1,O=C(C1CC1)N1CC[C@@H](C=C2NNC(=O)N2c2ccc(-c3ccc4occc4c3)cc2)C1,86.9 ± 1%
2,C[C@H](NC(=O)c1sccc1OCc1ccc(Cl)cc1)c1ccccc1,74.5 ± 30%
3,O=C(O)C1=CC(=C(c2ccc(O)c(C(=O)O)c2)c2ccc(O)c(C(=O)O)c2)C=CC1=O [Aurintricarboxylic acid],98.3 ± 11%
4,COC(=O)[C@]12CCC(C)(C)C[C@H]1[C@H]1C(=O)C=C3[C@@]4(C)C=C(C#N)C(=O)C(C)(C)[C@@H]4CC[C@@]3(C)[C@]1(C)CC2 [Bardoxolone methyl],88.8 ± 13%
5,Cc1c(-c2ccc(-c3ccccc3F)cc2)nc2ccc(F)cc2c1C(=O)O [Brequinar],86.9 ± 3.8%
6,Nc1nc(Cl)nc2c1ncn2[C@H]1C[C@H](O)[C@@H](CO)O1 [Cladribine],3.78 ± 2%
7,O=C1c2cc([N+](=O)[O-])ccc2-n2c1nc1ccccc1c2=O [GNF-Pf-3777],80.8 ± 10%
8,C=C(C)[C@H]1Cc2c(ccc3c2O[C@@H]2COc4cc(OC)c(OC)cc4[C@@H]2C3=O)O1 [Rotenone],35.8 ± 0.99%
9,Oc1ccc(Nc2nc(-c3ccc(Cl)cc3)cs2)cc1 [SKI II],101 ± 1.1%
10,Cc1cn([C@H]2C[C@H](O)[C@@H](COP(=O)(O)OP(=O)(O)O)O2)c(=O)[nH]c1=O [Thymidine diphosphate],104 ± 6.7%
11,CN(C)c1cc(NC(=O)CNC(C)(C)C)c(O)c2c1C[C@H]1C[C@H]3[C@H](N(C)C)C(=O)C(C(N)=O)C(=O)[C@@]3(O)C(=O)C1C2=O (some centres not stated) [Tigecycline],96.7 ± 1.9%
12,COc1ccc2c(C(=S)N(C)CC(=O)O)cccc2c1C(F)(F)F [Tolrestat],94.1 ± 4.1%
13,CCC(=O)N1CCN(c2ccc(-n3c(=O)ccc4cnc5ccc(-c6cnc7ccccc7c6)cc5c43)cc2C(F)(F)F)CC1 [Torin1],104.4 ± 0.71%
14,NC(=O)c1cccc(-c2cccc(OC(=O)NC3CCCCC3)c2)c1 [URB-597],101 ± 11%
15,O=C1O[C@H]([C@@H](O)CO)C(O)=C1O [Vitamin C (ascorbate)],101 ± 4.3%

# Same assay, conditions: 1 µM; 72 h; co-treatment: pictilisib 100 nM
row,SMILES,cell viability
1,O=C(C1CC1)N1CC[C@@H](C=C2NNC(=O)N2c2ccc(-c3ccc4occc4c3)cc2)C1,76.6 ± 8.2%
2,C[C@H](NC(=O)c1sccc1OCc1ccc(Cl)cc1)c1ccccc1,95.2 ± 7.4%
3,O=C(O)C1=CC(=C(c2ccc(O)c(C(=O)O)c2)c2ccc(O)c(C(=O)O)c2)C=CC1=O [Aurintricarboxylic acid],101 ± 17%
4,COC(=O)[C@]12CCC(C)(C)C[C@H]1[C@H]1C(=O)C=C3[C@@]4(C)C=C(C#N)C(=O)C(C)(C)[C@@H]4CC[C@@]3(C)[C@]1(C)CC2 [Bardoxolone methyl],78.4 ± 4.4%
5,Cc1c(-c2ccc(-c3ccccc3F)cc2)nc2ccc(F)cc2c1C(=O)O [Brequinar],87.3 ± 11%
6,Nc1nc(Cl)nc2c1ncn2[C@H]1C[C@H](O)[C@@H](CO)O1 [Cladribine],3.81 ± 2.1%
7,O=C1c2cc([N+](=O)[O-])ccc2-n2c1nc1ccccc1c2=O [GNF-Pf-3777],78.63 ± 0.57%
8,C=C(C)[C@H]1Cc2c(ccc3c2O[C@@H]2COc4cc(OC)c(OC)cc4[C@@H]2C3=O)O1 [Rotenone],34.5 ± 0.37%
9,Oc1ccc(Nc2nc(-c3ccc(Cl)cc3)cs2)cc1 [SKI II],88 ± 2.7%
10,Cc1cn([C@H]2C[C@H](O)[C@@H](COP(=O)(O)OP(=O)(O)O)O2)c(=O)[nH]c1=O [Thymidine diphosphate],111 ± 1.5%
11,CN(C)c1cc(NC(=O)CNC(C)(C)C)c(O)c2c1C[C@H]1C[C@H]3[C@H](N(C)C)C(=O)C(C(N)=O)C(=O)[C@@]3(O)C(=O)C1C2=O (some centres not stated) [Tigecycline],101.8 ± 0.58%
12,COc1ccc2c(C(=S)N(C)CC(=O)O)cccc2c1C(F)(F)F [Tolrestat],88.1 ± 8.6%
13,CCC(=O)N1CCN(c2ccc(-n3c(=O)ccc4cnc5ccc(-c6cnc7ccccc7c6)cc5c43)cc2C(F)(F)F)CC1 [Torin1],85.8 ± 5.2%

# From the supplement of paper PMC8671470
